Assay results from patent publication US6576620B2, “Method of identifying partial adenosine A1 receptor agonists” (CV Therapeutics, Inc., priority 1999, dated 2003).
Values joined by “and” are separate entries in the source; they are usually repeats but may differ in a detail not shown here. Equal values may be shown once. Read-outs that look alike come from different tables or passages of the source.

Legend:
[1] = tested on: guinea pig isolated heart; assay: A-V nodal conduction time / S-H interval, isolated perfused heart; conditions: for S-H interval Efficacy: Table 5, 2759 = CVT-2759; for EC50: Cavia porcellus
Description: This method evaluates the potencies of compounds to cause coronary vasodilation (A2A AdoR response) and to prolong A-V nodal conduction time (A1 AdoR response).
Rats and guinea pigs, of either sex weighing from 230 to 260 grams and 300 to 350 grams, respectively, were used in this study. Animals were anesthetized by peritoneal injection of a cocktail containing ketamine and xylazine (ketamine 100 mg, xylazine 20 mg/ml). The chest was opened and the heart quickly removed. The heart was briefly rinse in ice-cold Krebs-Henseleit solution (see below), and the aorta cannulated. The heart was then perfused at a flow rate of 10 ml/min with modified Krebs-Henseleit (K-H) solution containing NaCl 117.9, KCl 4.5, CaCl2 2.5, MgSO4 1.18, KH2PO4 1.18, pyruvate 2.0 mmol. The K-H solution (pH 7.4) was gassed continuously with 95% O2 and 5% CO2 and warmed to 35±0.50° C. The heart was electrically paced at a fixed cycle length of […] (250 beats/min) using a bipolar electrode place on the left atrium. The electrical stimuli were generated by a Grass stimulator (Model S48, W. Warwick, R.I.) and delivered through a Stimuli Isolation Unit (Model SIU5, Astro-Med, Inc., NY) as square-wave pulses of 3-msec in duration and amplitude of at least twice the threshold intensity.
A1 adenosine receptor-mediated depression of A-V nodal conduction time (negative dromotropic effect) was measured. Atrial and ventricular surface electrograms in rats and His bundle electrogram in guinea pigs, were recorded during constant atrial pacing.
The effects of compounds on coronary conductance (A2A effect) and atrioventricular conduction time or stimulus-to-His-bundle (S-H) interval (A1 effect) was then determined. Hearts were instrumented for continuous recording of coronary perfusion pressure (A2A response) and atrioventricular (A-V) conduction time or S-H interval (A1 response). In each experiment, concentration-response relationship of compounds to increase coronary conductance and to prolong A-V conduction time or S-H interval was determined. After control measurements of CPP and A-V conduction time or S-H interval were made, progressive higher concentrations of the compound studied was administered until maximal coronary vasodilation and A-V nodal conduction time or S-H interval prolongation were achieved.
Guinea pigs (Hartley) of either sex weighing 300-350 g were anaesthetized with methoxyflurane and killed by decapitation. The chest was cut open and the heart was removed quickly and rinsed in ice-cold modified Krebs-Henseleit (K-H) solution. The contents of the modified K-H solution were (in mM): NaCl 117.9, KCl 4.8, CaCl2 2.5, MgSO2 1.18, KH2PO4 1.2, Na2 EDTA 0.5, ascorbic acid 0.14, dextrose 5.5, pyruvic acid (sodium salt) 2.0, and NaHCO3 25. The K-H solution was continuously gassed with 95% oxygen and 5% CO2, and the pH was adjusted to a value of 7.4. To perfuse the heart by the Langendorff method, the transected aorta was slid onto a glass cannula and secured by a ligature. Retrograde perfusion of the aorta was initiated immediately at a constant flow of 10 ml min-′ with modified K-H solution warmed to 36.0±0.5° C. A side port in the cannula was used to connect the perfusion line to a Gould pressure transducer for measurement of coronary perfusion pressure. Coronary perfusion pressure was continuously recorded on a strip chart (Gould RS3400, Cleveland, Ohio) throughout each experiment. Coronary conductance (in ml min^−1 mmHg^−1) was calculated as the ratio of coronary flow (10 ml min^−1) to perfusion pressure (mm Hg). To facilitate the exit of fluid from the left ventricle, the leaflets of the mitral valve were trimmed with fine spring-handled scissors. When appropriate, hearts were paced at a constant rate using external electrodes. […]

Adenosine A1 receptor [2] = assay: A1-agonist stimulated [35S]GTPγS binding to G proteins; assay type: biochemical; conditions: for GTPγS (% of CPA): Table 5; for GTPγS: Table 1, compounds of Example 2, normalized to the full agonist CPA
Description: At the end of the incubation, each suspension was filtered and the retained radioactivity determined as described above.

Adenosine A1 receptor [3] = target: T1, Adenosine A1 receptor (Cavia porcellus, UniProt P47745); assay: Affinity binding (Ki) of Tables 4 and 5
T1 construct: from tissue; host or cells: guinea pig forebrain membranes
T1 sequence (P47745 1-326): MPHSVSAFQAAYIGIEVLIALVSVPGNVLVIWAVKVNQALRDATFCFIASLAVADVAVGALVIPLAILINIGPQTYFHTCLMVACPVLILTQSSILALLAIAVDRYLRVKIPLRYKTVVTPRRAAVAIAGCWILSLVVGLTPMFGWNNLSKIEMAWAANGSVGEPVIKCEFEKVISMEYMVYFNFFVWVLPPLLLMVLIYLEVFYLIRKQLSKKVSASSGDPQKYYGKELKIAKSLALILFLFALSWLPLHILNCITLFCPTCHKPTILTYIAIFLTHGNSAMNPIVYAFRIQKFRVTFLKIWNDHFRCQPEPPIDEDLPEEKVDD
Description: The binding affinity of a compound is evaluated in a competitive binding assay.

[4] = Table 4, A-V nodal conduction time, read-out: EC50 A-V NCT
[5] = Table 5, S-H interval, read-out: EC50

| Molecule | Ki (Adenosine A1 receptor [3]; Table 5, read-out: Ki) | GTPγS (Adenosine A1 receptor [2]) | also measured |
| --- | --- | --- | --- |
| CCCn1c(=O)c2[nH]c(C3CCCC3)nc2n(CCC)c1=O [CPX, 8-cyclopentyl-1,3-dipropylxanthine, reference compound] | – | – | S-H interval ([1]; 50 nM CPX in continued presence of 10 μM Compound 6 of Example 2 (58±2 msec before CPX)): 50 ± 2 ms |
| O[C@@H]1[C@H](O)[C@@H](CSc2c(Cl)cccc2Cl)O[C@H]1n1cnc2c(N[C@@H]3CCOC3)ncnc21 [Compound 19 of Example 4, 2-{6-[((3R)oxolan-3-yl)amino]purin-9-yl}(4S,5S,2R,3R)-5-[(2,6-dichlorophenylthio)methyl]oxolane-3,4-diol] | 1340 nM | – | S-H interval Efficacy [1]: Full (>2759); GTPγS (% of CPA) (Adenosine A1 receptor [2]): 89 % of CPA |
| O[C@@H]1[C@H](O)[C@@H](CSc2cccc(F)c2)O[C@H]1n1cnc2c(N[C@@H]3CCOC3)ncnc21 [Compound 20 of Example 4, 2-{6-[((3R)oxolan-3-yl)amino]purin-9-yl}(4S,5S,2R,3R)-5-[(3-fluorophenylthio)methyl]oxolane-3,4-diol] | 1560 nM | – | S-H interval Efficacy [1]: Partial (= 2759); GTPγS (% of CPA) (Adenosine A1 receptor [2]): 84.2 % of CPA |
| O[C@@H]1[C@H](O)[C@@H](CSc2ccccc2F)O[C@H]1n1cnc2c(N[C@@H]3CCOC3)ncnc21 [Compound 21 of Example 4, 2-{6-[((3R)oxolan-3-yl)amino]purin-9-yl}(4S,5S,2R,3R)-5-[(2-fluorophenylthio)methyl]oxolane-3,4-diol] | 372 nM and 221 nM | – | EC50 [1, 4]: 1200 nM; EC50 [1, 5]: 1260 nM; S-H interval Efficacy [1]: Partial (>2759); GTPγS (% of CPA) (Adenosine A1 receptor [2]): 72 % of CPA; Ki (Adenosine A1 receptor [3]; Table 4, read-out: Ki low): 600 nM |
| CNC(=S)OC[C@H]1O[C@@H](n2cnc3c(N[C@@H]4CCOC4)ncnc32)[C@H](O)[C@@H]1O [Compound 45 of Example 2, 2-{6-[((3R)oxolan-3-yl)amino]purin-9-yl}(4S,2R,3R,5R)-5-{[(methylamino)thioxomethoxy]methyl}oxolane-3,4-diol] | 346 nM | 77% | EC50 [1, 4]: 600 nM; EC50 [1, 5]: 570 nM; S-H interval Efficacy [1]: Partial; GTPγS (% of CPA) (Adenosine A1 receptor [2]): 77 % of CPA; Ki (Adenosine A1 receptor [3]; Table 4, read-out: Ki low): 400 nM |
| CCNC(=S)OC[C@H]1O[C@@H](n2cnc3c(N[C@@H]4CCOC4)ncnc32)[C@H](O)[C@@H]1O [Compound 46 of Example 2, 2-{6-[((3R)oxolan-3-yl)amino]purin-9-yl}(4S,2R,3R,5R)-5-{[(ethylamino)thioxomethoxy]methyl}oxolane-3,4-diol] | 1110 nM | 77% | S-H interval Efficacy [1]: Full (Weak); GTPγS (% of CPA) (Adenosine A1 receptor [2]): 77 % of CPA |
| CC(C)NC(=S)OC[C@H]1O[C@@H](n2cnc3c(N[C@@H]4CCOC4)ncnc32)[C@H](O)[C@@H]1O [Compound 47 of Example 2, 2-{6-[((3R)oxolan-3-yl)amino]purin-9-yl}(4S,2R,3R,5R)-5-({[(methylethyl)amino]thioxomethoxy}methyl)oxolane-3,4-diol] | 1370 nM | – | – |
| O[C@@H]1[C@H](O)[C@@H](COC(=S)N[C@H]2CCC[C@@H]2O)O[C@H]1n1cnc2c(N[C@@H]3CCOC3)ncnc21 [Compound 64 of Example 2, 2-{6-[((3R)oxolan-3-yl)amino]purin-9-yl}(4S,2R,3R,5R)-5-({[((1S,2S)-2-hydroxycyclopentyl)amino]thioxomethoxy}methyl)oxolane-3,4-diol] | – | 99% | – |
| O=C(NC1CCCC1C(=O)O)OC[C@H]1O[C@@H](n2cnc3c(N[C@@H]4CCOC4)ncnc32)[C@H](O)[C@@H]1O (stereo partly shown) [Compound 65 of Example 2] | – | 81% | – |
| O=C(O)CCNC(=O)OC[C@H]1O[C@@H](n2cnc3c(N[C@@H]4CCOC4)ncnc32)[C@H](O)[C@@H]1O [Compound 67 of Example 2, 3-{[(5-{6-[((3R)oxolan-3-yl)amino]purin-9-yl}(3S,2R,4R,5R)-3,4 dihydroxyoxolan-2-yl)methoxy]carbonylamino}propanoic acid] | – | 59% | – |
| O=C(O)CNC(=O)OC[C@H]1O[C@@H](n2cnc3c(N[C@@H]4CCOC4)ncnc32)[C@H](O)[C@@H]1O [Compound 68 of Example 2, 2-{[(5-{6-[((3R)oxolan-3-yl)amino]purin-9-yl}(3S,2R,4R,5R)-3,4 dihydroxyoxolan-2-yl)methoxy]carbonylamino}acetic acid] | – | 76% | – |
| CNC(=O)OC[C@H]1O[C@@H](n2cnc3c(N[C@@H]4CCOC4)ncnc32)[C@H](O)[C@@H]1O [compound 6] | – | – | EC50 [1, 4]: 3100 nM; Ki (Adenosine A1 receptor [3]; Table 4, read-out: Ki low): 2600 nM |
| N-[(5-{6-[((3R)oxolan-3-yl)amino]purin-9-yl}(3S,2R,4R,5R)-3,4-dihydroxyoxolan-2-yl)methy]cyclopentyloxycarboxamide [Compound 70 of Example 2] | – | 76% | – |

Continued, in another order:

| Ki (Adenosine A1 receptor [3]; Table 5, read-out: Ki) | GTPγS (Adenosine A1 receptor [2]) | Molecule | also measured |
| --- | --- | --- | --- |
| – | 98% | COC(=S)NC[C@H]1O[C@@H](n2cnc3c(N[C@@H]4CCOC4)ncnc32)[C@H](O)[C@@H]1O [Compound 71 of Example 2] | – |
| – | 109% | O=C(NC1CCCC1)SC[C@H]1O[C@@H](n2cnc3c(N[C@@H]4CCOC4)ncnc32)[C@H](O)[C@@H]1O [Compound 73 of Example 2, [(5-{6-[((3R)oxolan-3-yl)amino]purin-9-yl}(2S,3S,4R,5R)-3,4-dihydroxyoxolan-2-yl)methythio]-N-cyclopentylcarboxamide] | – |
| – | 95% | CNC(=S)SC[C@H]1O[C@@H](n2cnc3c(N[C@@H]4CCOC4)ncnc32)[C@H](O)[C@@H]1O [Compound 74 of Example 2, 2-{6-[((3R)oxolan-3-yl)amino]purin-9-yl}(4S,5S,2R,3R)-5-{[(methylamino)thioxomethylthio]methyl}oxolane-3,4-diol] | – |
| – | 91% | O[C@@H]1[C@H](O)[C@@H](CSC(=S)NC2CCCC2)O[C@H]1n1cnc2c(N[C@@H]3CCOC3)ncnc21 [Compound 75 of Example 2] | – |
| – | 101% | CNC(=S)NC[C@H]1O[C@@H](n2cnc3c(N[C@@H]4CCOC4)ncnc32)[C@H](O)[C@@H]1O [Compound 77 of Example 2, 2-{6-[((3R)oxolan-3-yl)amino]purin-9-yl}(4S,2R,3R,5R)-5-({[(methylamino)thioxomethyl]amino}methyl)oxolane-3,4-diol] | – |
| – | 95% | O[C@@H]1[C@H](O)[C@@H](CNC(=S)NC2CCCC2)O[C@H]1n1cnc2c(N[C@@H]3CCOC3)ncnc21 [Compound 78 of Example 2, 2-{6-[((3R)oxolan-3-yl)amino]purin-9-yl}(4S,2R,3R,5R)-5-({[(cyclopentylamino)thioxomethyl]amino}methyl)oxolane-3,4-diol] | – |
| – | 80% | O=c1occn1C[C@H]1OC(n2cnc3c(N[C@@H]4CCOC4)ncnc32)[C@H](O)[C@@H]1O (stereo partly drawn) [Compound 80 of Example 2, 3-[(5-{6-[((3R)oxolan-3-yl)amino]purin-9-yl}(3S,2R,4R)-3,4-dihydroxyoxolan-2-yl)methyl]-1,3-oxazolin-2-one] | – |
| 9630 nM | – | CCCCNC(=O)OCC1OC(n2cnc3c(N[C@@H]4CCOC4)ncnc32)C(O)C1O (stereo partly shown) [compound 27] | – |
